ChEMBL document CHEMBL1201862, “PubChem BioAssay data set” (2004)
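Cells were grown in 96-well plates and exposed to each compound for 48 hours at five concentrations; endpoints were interpolated linearly between bracketing concentrations, or set to the highest concentration if not reached. The concentration for 50% growth inhibition is given as GI50.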 The source made the active and inactive calls. Cut-off read from the data, not from the text of the source: active = GI50 up to about 1.1 µM and inactive = higher.

Experiments:
Assay in all cases: NCI anticancer screen, dose series, 48 h
SF-295 = test system: SF-295
K562 = test system: K562
HT-29 = test system: HT-29
COLO 205 = test system: COLO 205
UACC-62 = test system: UACC-62
HCT-15 = test system: HCT-15
NCI-H522 = test system: NCI-H522
SF-539 = test system: SF-539
HCT-116 = test system: HCT-116
A549 = test system: A549
IGROV-1 = test system: IGROV-1
M14 = test system: M14
U-251 = test system: U-251
SK-MEL-28 = test system: SK-MEL-28
OVCAR-5 = test system: OVCAR-5

O=C1[C@H]2C(c3ccccc3)=NN(C(=O)c3ccccc3)[C@H]2C(=O)N1c1ccccc1
GI50 (SF-295): > 100 µM (inactive) | GI50 (K562): > 100 µM (inactive) | GI50 (HT-29): > 100 µM (inactive) | GI50 (COLO 205): > 100 µM (inactive) | GI50 (UACC-62): > 100 µM (inactive) | GI50 (HCT-15): > 100 µM | GI50 (NCI-H522): > 100 µM (inactive) | GI50 (SF-539): > 100 µM (inactive) | GI50 (HCT-116): > 100 µM (inactive) | GI50 (A549): > 100 µM (inactive) | GI50 (IGROV-1): > 100 µM (inactive) | GI50 (M14): > 100 µM (inactive) | GI50 (U-251): > 100 µM (inactive) | GI50 (SK-MEL-28): > 100 µM (inactive)

Cc1oc2c(C)c(O)c3c(c2c1C1(C)OCCO1)C(=O)C=C(Cl)C3=O
GI50 (SF-295): > 100 µM (inactive) | GI50 (K562): > 100 µM (inactive) | GI50 (HT-29): > 100 µM (inactive) | GI50 (OVCAR-5): > 100 µM (inactive) | GI50 (COLO 205): > 100 µM (inactive) | GI50 (HCT-15): > 100 µM | GI50 (NCI-H522): > 100 µM (inactive) | GI50 (SF-539): > 100 µM (inactive) | GI50 (HCT-116): > 100 µM (inactive) | GI50 (A549): > 100 µM (inactive) | GI50 (IGROV-1): > 100 µM (inactive) | GI50 (M14): > 100 µM (inactive) | GI50 (U-251): > 100 µM (inactive) | GI50 (SK-MEL-28): > 100 µM (inactive)

CN(C)c1ccc(-c2cc(O)c3ccccc3n2)cc1
GI50 (SF-295): > 100 µM (inactive) | GI50 (K562): > 100 µM (inactive) | GI50 (HT-29): > 100 µM (inactive) | GI50 (COLO 205): > 100 µM (inactive) | GI50 (HCT-15): > 100 µM | GI50 (NCI-H522): > 100 µM (inactive) | GI50 (SF-539): > 100 µM (inactive) | GI50 (HCT-116): > 100 µM (inactive) | GI50 (A549): > 100 µM (inactive) | GI50 (IGROV-1): > 100 µM (inactive) | GI50 (M14): > 100 µM (inactive) | GI50 (U-251): > 100 µM (inactive) | GI50 (SK-MEL-28): > 100 µM (inactive)

ICC1CCCO1 (stereo unspecified)
GI50 (SF-295): > 100 µM (inactive) | GI50 (HT-29): > 100 µM (inactive) | GI50 (OVCAR-5): > 100 µM (inactive) | GI50 (COLO 205): > 100 µM (inactive) | GI50 (HCT-15): > 100 µM | GI50 (SF-539): > 100 µM (inactive) | GI50 (HCT-116): > 100 µM (inactive) | GI50 (A549): > 100 µM (inactive) | GI50 (IGROV-1): > 100 µM (inactive) | GI50 (M14): > 100 µM (inactive) | GI50 (U-251): > 100 µM (inactive) | GI50 (SK-MEL-28): > 100 µM (inactive)

COc1ccc(N2C(=O)C3c4[nH]c5ccccc5c4C4CC(C)CC(C)C4C3C2=O)cc1 (stereo unspecified)
GI50 (SF-295): > 100 µM (inactive) | GI50 (K562): > 100 µM (inactive) | GI50 (HT-29): > 100 µM (inactive) | GI50 (COLO 205): > 100 µM (inactive) | GI50 (UACC-62): > 100 µM (inactive) | GI50 (HCT-15): > 100 µM | GI50 (NCI-H522): > 100 µM (inactive) | GI50 (SF-539): > 100 µM (inactive) | GI50 (HCT-116): > 100 µM (inactive) | GI50 (A549): > 100 µM (inactive) | GI50 (IGROV-1): > 100 µM (inactive) | GI50 (M14): > 100 µM (inactive) | GI50 (U-251): > 100 µM (inactive) | GI50 (SK-MEL-28): > 100 µM (inactive)

Cc1cccc(NC2=NC(=O)C(CC(=O)Nc3ccccc3Cl)S2)c1 (stereo unspecified)
GI50 (SF-295): > 100 µM (inactive) | GI50 (K562): > 100 µM (inactive) | GI50 (HT-29): > 100 µM (inactive) | GI50 (OVCAR-5): > 100 µM (inactive) | GI50 (UACC-62): > 100 µM (inactive) | GI50 (HCT-15): > 100 µM | GI50 (SF-539): > 100 µM (inactive) | GI50 (HCT-116): > 100 µM (inactive) | GI50 (A549): > 100 µM (inactive) | GI50 (IGROV-1): > 100 µM (inactive) | GI50 (M14): > 100 µM (inactive) | GI50 (SK-MEL-28): > 100 µM (inactive)

C/C=C1\CN2CCc3c([nH]c4ccccc34)C2CC1CCO (stereo unspecified)
GI50 (SF-295): > 100 µM (inactive) | GI50 (K562): > 100 µM (inactive) | GI50 (HT-29): > 100 µM (inactive) | GI50 (OVCAR-5): > 100 µM (inactive) | GI50 (COLO 205): > 100 µM (inactive) | GI50 (HCT-15): > 100 µM | GI50 (NCI-H522): > 100 µM (inactive) | GI50 (SF-539): > 100 µM (inactive) | GI50 (HCT-116): > 100 µM (inactive) | GI50 (A549): > 100 µM (inactive) | GI50 (IGROV-1): > 100 µM (inactive) | GI50 (M14): > 100 µM (inactive) | GI50 (U-251): > 100 µM (inactive) | GI50 (SK-MEL-28): > 100 µM (inactive)

CN1CCc2c1nc(-c1cccnc1)c1c2N(C)CC1
GI50 (SF-295): > 100 µM (inactive) | GI50 (K562): > 100 µM (inactive) | GI50 (HT-29): 95.3 µM (inactive) | GI50 (OVCAR-5): > 100 µM (inactive) | GI50 (COLO 205): > 100 µM (inactive) | GI50 (UACC-62): > 100 µM (inactive) | GI50 (HCT-15): > 100 µM | GI50 (SF-539): > 100 µM (inactive) | GI50 (HCT-116): > 100 µM (inactive) | GI50 (A549): > 100 µM (inactive) | GI50 (IGROV-1): > 100 µM (inactive) | GI50 (M14): > 100 µM (inactive) | GI50 (U-251): > 100 µM (inactive)
